Reference: ChEMBL document CHEMBL4007385, “Prodrug approach: An overview of recent cases” (Eur J Med Chem, 2017)

Test: Oral bioavailability in human
Assay type: ADME, organism-based
Conditions: in vivo

| bioavailability | SMILES |
| --- | --- |
| 80% | CCOC(=O)C1=C[C@@H](OC(CC)CC)[C@H](NC(C)=O)[C@@H](N)C1 [OSELTAMIVIR] |
| 5% | CCC(CC)O[C@@H]1C=C(C(=O)O)C[C@H](N)[C@H]1NC(C)=O [OSELTAMIVIR CARBOXYLATE] |
